A word on the melting point: it is the temperature, or range, at which the solid turns liquid.

The structures appear in SMILES notation. Bounds are passed on as bounds.

Molecule `CC(C)c1ccc(N(Cc2ccc(Cl)cc2)C(=O)C2CCCc3ccccc32)cc1` (stereo unspecified) returned a melting point of 122 to 123 °C.

The molecule `CCCCC[C@H](CC(=O)OC(C)(C)C)C(=O)N1C(=O)OC[C@@H]1C(C)C` showed a melting point of 51 to 53 °C.

On to `COC(=O)c1scc(Cl)c1NC(C)=O`, for which the melting point is 142 to 147 °C.

Consider `CS(=O)(=O)N1CCOc2ccc(C3=NNC(=O)CC3)cc21`, for which the melting point turned out to be 245 °C.

`NC(=O)Nc1cccc(CS(=O)(=O)O)c1` showed a melting point of 180 to 187 °C.

`O=C(O)C1CCc2ccccc2N1C(=O)CSSCC(=O)N1c2ccccc2CCC1C(=O)O` (stereo unspecified) came in with a melting point of 172 to 174 °C.

`CC1(C)CCCC(C)(C)N1c1nc(Cl)cc(N2CCCC2)n1`: the melting point fell in the range of 130 to 135 °C.

In turn, `Nc1ccc(S(=O)c2ccc(Sc3ccc(Cl)c([N+](=O)[O-])c3)cc2)cc1[N+](=O)[O-]` (stereo unspecified) showed a melting point of 170 to 172 °C.

Turning to `NC(=O)Cc1ccc(OCC(O)CNCCCn2cnc3ccccc32)cc1` (stereo unspecified), the melting point is 92 to 96 °C.

Molecule `CCC(O)(c1ccc(OCCN(C)C)cc1)c1cccc(C(F)(F)F)c1` (stereo unspecified) returned a melting point of 69 to 70 °C.

For `O=[N+]([O-])c1ccc(O)c(CSCC(O)CO)c1` (stereo unspecified), the melting point stood at 130 °C.

`Cc1c(-c2ncncc2Cl)ssc1=S` showed a melting point of 100 °C.

As for `CCOC(=O)c1cc2c(OCc3ccccc3)cc(C)cc2[nH]1`, the melting point is 167 to 168 °C.

As to `O=C(NCCNCc1cc2cc(OCc3ccccc3)ccc2o1)C12CC3CC(CC(C3)C1)C2`, the melting point lay within 169 to 170 °C.

In turn, `COC(=O)Nc1ccc(Br)c(C)c1` displayed a melting point of 71 to 72 °C.

In turn, `C=CCOc1ccc(C(=O)C=Cc2cc(OC)c(CCCC)c(OC)c2)cc1` yielded a melting point of 74 to 75 °C.

For `CC(C)c1cccc(C(C)C)c1NC(=O)c1ccccc1N`, the melting point lay within 207 to 209 °C.

As for `NC(=O)c1ccc(CCCNCC(O)COc2ccccc2)s1` (racemic), the melting point fell in the range of 129 to 130 °C.

The molecule `CC(Oc1ccc(Oc2ncc(C(F)(F)F)cc2Cl)cc1)C(=O)Nc1ccc(C(F)(F)F)cc1` (stereo unspecified) yielded a melting point of 140 to 143 °C.

In the case of `O=[N+]([O-])c1c(Nc2ccc(O)cc2)ncnc1-c1ccc(C(F)(F)F)cc1F`, the melting point is 169 to 172 °C.

In the case of `CCn1cc(C(=O)O)c(=O)c2cc(Br)c(N3CCOCC3)cc21`, the melting point came to 266 °C.

In turn, `Cc1ccc(-c2ccc(C(=O)Nc3ccc4cc(CN5CCCC5)cnc4c3C)cc2F)cc1` displayed a melting point of 193 to 194 °C.

Molecule `CC1(C)COC(=O)N1c1nc(-c2cccc(Br)c2)cs1` displayed a melting point of 142 to 144 °C.

On to `Cn1c(C(F)(F)F)nn(-c2cc(NS(C)(=O)=O)c(C#N)cc2F)c1=O`, for which the melting point turned out to be 67 °C.

Molecule `COc1cc(Br)c(C(C)=O)cc1O` returned a melting point of 110 to 111 °C.

In the case of `COCCCOc1cc(N(C)S(=O)(=O)c2ccccn2)c2[nH]c(C3=NCC(CN4CCS(=O)CC4)S3)cc2c1` (stereo unspecified), the melting point is 176 to 177 °C.

`CC(=O)c1cccc(C(=O)NC(Nc2c(Nc3cccnc3)c(=O)c2=O)C(C)(C)C)c1` (stereo unspecified): the melting point was in the range of 218 to 219 °C.

`CNC(=S)NCCCNc1ccccn1` had a melting point of 134 to 135 °C.

In turn, `CC1(C)C(C=CC(=O)OC2CC2)C1C(=O)OC(C#N)c1cccc(Oc2ccccc2)c1` (stereo unspecified) displayed a melting point of 62 °C.

As for `COC(=O)C1=Cc2cc(-c3ccc(N4CCOCC4)cc3)ccc2SCC1`, the melting point lay within 154 to 156 °C.

`Cc1c(CO)sc2c(Br)cccc12`: the melting point was in the range of 129 to 130 °C.

`Cc1cc(C#N)cn2cc(-c3cccc(Br)c3)nc12` yielded a melting point of 168 to 170 °C.

With `Clc1ccc2c(c1)N(c1ncnc3cc4c(cc13)OCCO4)CC2`, the melting point lay within 209 to 211 °C.

Turning to `Cc1cc([N+](=O)[O-])c2[nH]ccc(=O)c2c1`, the melting point lay within 209 to 212 °C.

Molecule `O=C(CC1CCCCC1)c1ccccc1` showed a melting point of 61 to 67 °C.

`CC(C(=O)O)c1c(Sc2ccccc2)c2cc(F)ccc2n1Cc1ccc(Cl)cc1` (stereo unspecified) yielded a melting point of 80 to 82 °C.

`CCc1cc(C(=O)c2ccccc2Cl)c(-n2c(C)nnc2CNC(=O)Nc2cccc(CC(=O)OC(C)(C)C)c2)s1` showed a melting point of 178 to 179 °C.

The molecule `CCCSc1cc(OCc2ccc(Cl)cc2)ccc1C` returned a melting point of 35 to 36 °C.

The molecule `O=c1ccn(-c2cc3[nH]c(=O)c(=O)[nH]c3cc2[N+](=O)[O-])cc1F` displayed a melting point greater than 300 °C.

Molecule `COc1cccc2cc(C(=O)O)oc(=O)c12` had a melting point of 251 to 253 °C.

Molecule `O=C1c2ccccc2C2(O)Oc3cc4ccccc4cc3C12O` (stereo unspecified) registered a melting point of 220 to 221 °C.

Molecule `CCOC(Cc1ccc(NCCc2ccc(OS(C)(=O)=O)cc2)cc1)C(=O)O` (stereo unspecified) displayed a melting point of 130 to 134 °C.

Molecule `N#CC(=NO)c1cc(F)ccc1F` yielded a melting point of 64 to 67 °C.

Regarding `OCCc1nccn1CCCCc1ccc(O)cc1`, the melting point lay in the range of 75 to 77 °C.

Take `CC(O)c1cc(Cl)cc(Cl)c1O` (stereo unspecified): the melting point amounted to 70 °C.

Consider `CC(C)Oc1cc(-n2nc(C(F)F)n(C)c2=O)c(Cl)cc1Cl`, for which the melting point is 95 to 97 °C.

On to `CC(=O)N[C@@H](C)c1ccc(C(C)=O)cc1`, for which the melting point fell in the range of 125 to 128 °C.

On to `Oc1ccc(CNCc2cccc(C(F)(F)F)c2)c2cccnc12`, for which the melting point fell in the range of 127 to 129 °C.

`CCCCCCCCc1ccc(C(=S)c2ccc(OCCCC)cc2O)cc1` displayed a melting point of 77 to 79 °C.

The molecule `CC(=NOCCC(=O)O)c1ccc(Cl)cc1` displayed a melting point of 80 to 83 °C.

Turning to `Cc1ccc(S(=O)(=O)NC(=O)C(C)(NC(=O)NN(C)C)C(C)C)cc1` (stereo unspecified), the melting point lay in the range of 96 to 98 °C.

`CCOC(=O)c1cnc2c(F)cc(I)cc2c1O` showed a melting point of 287 to 289 °C.

Molecule `CCN(CC)c1ccc2c(c1)OC(=O)C(C)(C#Cc1ccccc1)C2` (stereo unspecified) gave a melting point of 142 to 144 °C.

`O=C(C[C@@H](CCCC1CCCCC1)c1nc(CNC2CCCCC2)no1)NO` showed a melting point of 127 °C.

`O=C(NCc1cccnc1)c1cc2ccnc(N(Cc3ccccc3)Cc3ccccc3)c2[nH]1` yielded a melting point of 105 to 108 °C.

In turn, `Cc1cc(-n2ccnc2)c2cccc(O)c2n1` registered a melting point of 192 to 196 °C.

Molecule `COc1cc(OC)nc(-n2cnc(N)n2)n1` displayed a melting point of 219 °C.

Consider `O=C(O)C1CNc2ccccc2CN1` (stereo unspecified), for which the melting point lay within 183 to 185 °C.

In turn, `NC(CCCBr)C(=O)c1ccccc1` (stereo unspecified) came in with a melting point of 74 to 76 °C.

Turning to `Oc1cc(Oc2ncc(C(F)(F)F)cc2Cl)ccc1Br`, the melting point lay in the range of 124 to 127 °C.

In turn, `COc1ccc(C2(O)OC(=O)C(c3ccc4nsnc4c3)=C2Cc2ccccc2)cc1` (stereo unspecified) registered a melting point of 40 to 41 °C.

The molecule `O=C(Cc1ccc(OCc2ccccc2)cc1)Nc1nnc(-c2cccc(Oc3cccc(C(F)(F)F)c3)c2)s1` had a melting point of 194 to 195 °C.

`CC(C)(C)S(=O)(=O)N1C[C@@H](F)C[C@@H]1c1cc(F)cc(C#N)c1` yielded a melting point of 182 to 184 °C.

Take `CC(Oc1ccc(Oc2cnc3cc(Cl)ccc3n2)cc1)C(=O)Nc1ccc(C(F)(F)F)cc1` (stereo unspecified): the melting point was in the range of 176 to 178 °C.

`O=C1CCCc2cc(NS(=O)(=O)c3ccccc3)ccc21` returned a melting point of 164 to 165 °C.

Regarding `O=C(Nc1ccnn1-c1c(F)c(F)c(C(F)(F)F)c(F)c1F)C(Cl)Cl`, the melting point lay in the range of 112 to 114 °C.

The molecule `CC(C)(C)C(=O)c1c[nH]c2ncc(-c3ccoc3)nc12` registered a melting point of 256 to 258 °C.

`Oc1ccc2c(Cl)cc(-c3ccccc3)nc2c1` yielded a melting point of 190 to 192 °C.

`Cc1cc(OC(=O)c2ccccc2)ccc1OCc1ccccc1`: the melting point fell in the range of 118 to 119 °C.

`CC(=O)NCCc1cn(S(=O)(=O)c2ccc(C)cc2)c2ccc(OCCN3CCCCC3)cc12` registered a melting point of 65 to 66 °C.

In turn, `COc1cccc2c(Nc3ccccc3C)c(C(C)=O)cnc12` had a melting point of 171 to 173 °C.

Molecule `C[C@H](NC(=O)c1c[nH]c2ncc(C3CC3)nc12)C(C)(C)CS(C)(=O)=O` came in with a melting point of 232 to 234 °C.

The molecule `COc1ccc(Cl)n2nc(SCc3ccccc3)nc12` had a melting point of 99 to 100 °C.

For the molecule `C1=C(/C=C/c2ccccc2)CCN(Cc2n[nH]c3ccccc23)C1`, the melting point lay within 207 to 209 °C.

Molecule `Cc1nn(-c2ccc(C(F)(F)F)cn2)cc1CCCOc1cccc(CC(=O)O)c1` yielded a melting point of 96 to 97 °C.

As for `CC(=O)c1ccc(CCC(=O)O)cc1`, the melting point was in the range of 118 to 119 °C.

Take `CC(C(=O)c1ccc(Cl)cc1)n1ncn(-c2ccc(N3CCN(Cc4ccccc4)CC3)cc2)c1=O` (stereo unspecified): the melting point worked out at 164 °C.

The molecule `O=[N+]([O-])c1cnn2ccccc12` gave a melting point of 179 to 182 °C.

In turn, `CC1CN(c2nnc(N3CCOC(C)C3)c3cc(-c4ccccc4)ncc23)CCO1` (stereo unspecified) had a melting point of 75 to 81 °C.

In turn, `O=C(Cn1c(-c2ccccc2)ncc(NC(=O)OCc2ccc(C(=O)O)cc2)c1=O)NC(Cc1ccccc1)C(=O)C(F)(F)F` (stereo unspecified) yielded a melting point of 202 to 207 °C.

For `OCc1cn(-c2cccc(Cl)c2)cn1`, the melting point is 78 to 79 °C.

Turning to `Cc1cnc(-c2c(F)cccc2F)nn1`, the melting point was 90 to 93 °C.

In the case of `CCOC(=O)c1ccccc1N(CC(=O)OC(C)(C)C)C(=O)CN1C(=O)c2ccccc2C1=O`, the melting point worked out at 127 °C.

Molecule `Cc1ccc(-c2cnc3c(N)ncnc3n2)cc1` returned a melting point of 315 °C.

With `COc1cc(CCCN(C)Cc2ccc(OC)c(OC)c2)ccc1NC(=O)c1cccc2c(=O)c3cccc(OC)c3[nH]c12`, the melting point was 105 °C.

In turn, `Cc1ccc(C(=O)c2cc(-c3ccc(S(C)(=O)=O)cc3)c(N3CCOCC3)s2)cc1` came in with a melting point of 189 °C.

`Cc1cc(NC(=O)c2cn(-c3ccccc3)c3ccccc3c2=O)no1` returned a melting point of 163 to 164 °C.

Consider `O=C(CCCS(=O)c1ccc(Cl)cc1)NO` (stereo unspecified), for which the melting point was 126 to 127 °C.

For the molecule `COc1ccc(Cc2cc(C(C)(C)C)cc(C(C)(C)C)c2O)cc1`, the melting point fell in the range of 84 to 85 °C.

Take `Cc1ccc(-c2ncnc(-c3cccc(C(=O)O)c3)n2)cc1`: the melting point fell in the range of 298 to 300 °C.

Consider `C(=C\c1nc(COc2ccc(CCCn3cnc4ccccc43)cc2)co1)/c1ccccc1`, for which the melting point was 115 to 117 °C.

The values above are taken from a melting point compilation (Tetko et al.; mined from patent text by program, amines drawn as free bases though some values may be those of a salt).
